Data on four molecules can be found in US7220755B2, “42-O-alkoxyalkyl rapamycin derivatives and compositions comprising same” (Biosensors International Group, Ltd., priority 2003, dated 2007).

For data set [1], the system named is human smooth muscle cells. The experiment in a line: In vitro potency: growth suppression of smooth muscle cell cultures (human). The data set is classed as cell-based. As to conditions: FIG. 2, over five orders of magnitude concentration. How it is done: The ability of the cell culture to reproduce was assessed after drug exposure by addition of a colored reagent which causes a color change in the surviving cells, followed by cell cytometry. The ability of the cells to migrate was assessed when cells from the culture moved through a porous membrane barrier adjacent the culture, and again by staining and cell cytometry. The results of these tests are shown in FIG. 2 for human smooth muscle cells.

A short description of data set [2]: In vitro release rate of drug from polymer-coated stents into ethanol-water bath. The data set is classed as physicochemical. As to conditions: at 96 hours; unstirred ethanol-water bath at 37° C.; poly-dl-lactic acid coated stents, average drug load 230 μg. The method, then: The in vitro release rate of drug from the stents into an unstirred, ethanol-water bath at 37° C. was measured and the results are shown in FIG. 4. The six curves in FIG. 4 correspond to six stents carrying a poly-dl-lactic acid polymer loaded with 42-O-(2-ethoxyethyl) rapamycin. Each stent held between about 224–235 μg of drug, with an average drug load of 230 μg. The polymer-drug coated stents were sterilized at 25 KGy or at 27.5 KGy prior to measuring the release rate.
100 mg poly (dl-lactide) was dissolved into 2 mL acetone at room temperature. 5 mg 42-O-(2-ethoxyethyl) rapamycin was placed in a vial and 100 μL lactide solution added. A microprocessor-controlled syringe pump was used to precision dispense 4.5 μL of the drug containing poly-dl-lactide solution to the outer surface of a metal S-Stent (available from Biosensors International Inc, Newport Beach, Calif.).

Data set [3] relates to pig coronary arteries (restenosis). Briefly: 30-day implantation of drug-eluting stents in pig coronary arteries (late loss vs injury score). As to conditions: 30 days in pig vessels; for intercept of the zero injury (late loss) / neointimal response to injury (slope of the regression line of late loss vs injury score): FIG. 10.
Experimental: After preparation of the stents having a polymer-drug coating, they were implanted, as described in Example 5, into pigs for a thirty day period.
As described in Example 5, nine stents eluting 42-O-(2-ethoxyethyl) rapamycin from a polymer layer of poly-lactic acid were implanted in pigs and six control, bare metal stents were implanted. […] Quantitative coronary angiography was performed to measure the vessel lumen diameter immediately before and after stent placement and also 30 days later just prior to the follow-up angiogram taken at animal sacrifice. […] Percent stenosis (% stenosis) was determined from the measurements as: % Stenosis=[(RVD−MLD)/RVD]×100 where MLD is minimum lumen diameter and RVD is distal and proximal reference vessel diameter. The stent to artery ratio was also calculated from these measurements. The angiographic percent stenosis was calculated from the measurements of minimum lumen diameter obtained at the follow-up angiogram.
The photographs in FIGS. 5–9 permit determination via planimetry of the area of new tissue inside the stent after 30 days in vivo. The average thickness of new tissue formed inside the stent for each implant was determined and plotted against an injury score, also determined after the 30 day test period. A least-squares linear regression analysis of the data provides a sensitive method to compare the therapeutic benefit of different stent compositions.
The degree of vascular injury was also quantified by assigning an “injury score” based on the amount and length of tear of the different wall structures. The degree of injury was calculated as follows: • 0=intact internal elastic lamina • 1=ruptured internal elastic lamina with exposure to superficial medial layers (minor injury) • 2=ruptured internal elastic lamina with exposure to deeper medial layers (medial dissection) • 3=ruptured external elastic lamina with exposure to the adventitia. The mean injury score for each arterial segment was calculated by dividing the sum of injury scores at each stent strut site by the total number of stent struts in the proximal, middle, and distal stent sections using the method described by Schwartz et al. (J. Am. Coll. Cardiol., 19:267–274 (1992)).
After analysis of the late loss and injury scores, the average late loss as a function of injury score was plotted for the test stents in each animal. […] The stents were in place in the vessel for 30 days.
Three days prior to insertion of stents each animal received 650 mg aspirin, 500 mg ticlopidine daily, and 120 mg verapamil daily. Aspirin (325 mg) daily was given throughout the duration of the study. The animals were fasted twelve hours prior to stent placement.
For stent placement, each animal was immobilized with an intramuscular injection of 0.5 mg/kg acepromazine, 20 mg/kg ketamine, and 0.05 mg/kg atropine.
The test system of data set [4] is porcine smooth muscle cells. The experiment in a line: In vitro potency: growth suppression of smooth muscle cell cultures (porcine). It counts as cell-based. As to conditions: over five orders of magnitude concentration.
For data set [5], the system named is pig coronary artery (restenosis after overstretch injury). The experiment in a line: Pig coronary artery overstretch injury model with drug-eluting stents. The conditions noted are these: for Diameter stenosis: lower score indicates higher efficacy. The data set is classed as in vivo. How it is done: In another study, stents carrying 42-O-(2-ethoxyethyl) rapamycin in the form of a polymer (poly-dl-lactic acid) coating were prepared for insertion into pigs with a vessel overstretch injury to the coronary artery. Comparative and control stents includes bare metal stents, stents having a polymer coating of poly-dl-lactic acid absent drug, stents carrying rapamycin in a poly-dl-lactic acid polymer coating, and stents carrying everolimus in a poly-dl-lactic acid polymer coating. The stents were inserted into vessels which seriously injured (averaging approximately 36% overstretch injury of the vessel) using an angioplasty balloon. […] In this way, it was possible to assess the relative effectiveness of the various test compounds presented to the vessels on the same metal stent/polymer platform. At the time of insertion, the extent of overstretch was recorded as a percent balloon/artery (B/A) ratio.

For data set [6] the following is noted: cited from earlier work.
Setting [7] is: drug load 225 μg, polymer coat 225 μg, stent length 15 mm.
[8] abbreviates: high dose, drug load 325 μg, polymer coat 1300 μg, 6 months.
Where [9] appears, read: high dose, drug load 325 μg, polymer coat 1300 μg, 28 days.
The mark [10] stands for this setting: low dose, drug load 180 μg, polymer coat 1300 μg.
[11] abbreviates: med. dose, drug load 275 μg, polymer coat 640–780 μg.

“Also recorded” adds a separate entry of the source.

`CCOCCO[C@@H]1CC[C@@H](C[C@@H](C)[C@@H]2CC(=O)[C@H](C)/C=C(\C)[C@@H](O)[C@@H](OC)C(=O)[C@H](C)C[C@H](C)/C=C/C=C/C=C(\C)[C@@H](OC)C[C@@H]3CC[C@@H](C)[C@@](O)(O3)C(=O)C(=O)N3CCCC[C@H]3C(=O)O2)C[C@H]1OC` [42-O-(2-ethoxyethyl) rapamycin]: the “inhibition of growth of smooth muscle cells” value in data set [1] was “effectively inhibited growth of smooth muscle cells; also recorded: inhibited cellular growth as effectively as 42-O-hydroxy heptyl rapamycin (diamonds) or rapamycin”. Moreover, the “drug load released into the bath” value in data set [2] is given as “less than half of the drug load released”. In addition, in data set [3], the “intercept of the zero injury (late loss)” value worked out at 0.126 mm and the “neointimal response to injury (slope of the regression line of late loss vs injury score)” value was 0.83 mm/injury score increment. Besides, in data set [3] (FIGS. 10-11), the “neointimal thickness at 30 days (late loss), comparison with other stents” value is given as “lower neointimal thickness at 30 days; also recorded: therapeutic effect when compared to bare, metal stents”. In data set [4], the “inhibition of growth of smooth muscle cells” value is recorded as “effectively inhibited growth of smooth muscle cells”. Further, the “mean lumen late loss and percent diameter stenosis, comparison with the other stents” value in data set [5] (compared to rapamycin, everolimus, bare metal and polymer-coated stents) is “lowest mean lumen late loss and percent diameter stenosis”. In data set [5] (setting [7]), this molecule registered a Mean lumen loss of 0.62 mm, a Neointimal area of 1.30 mm^2 and a Diameter stenosis of 14.8%.
Regarding `COC1CC2CCC(C)C(O)(O2)C(=O)C(=O)N2CCCCC2C(=O)OC(C(C)CC2CCC(OCCCCCCCO)C(OC)C2)CC(=O)C(C)C=C(C)C(O)C(OC)C(=O)C(C)CC(C)C=CC=CC=C1C` (stereo not shown) [42-O-hydroxy heptyl rapamycin], in data set [3], the “intercept of the zero injury (late loss)” value worked out at 0.130 mm and the “neointimal response to injury (slope of the regression line of late loss vs injury score)” value amounted to 0.126 mm/injury score increment.
`CO[C@H]1C[C@@H]2CC[C@@H](C)[C@@](O)(O2)C(=O)C(=O)N2CCCC[C@H]2C(=O)O[C@H]([C@H](C)C[C@@H]2CC[C@@H](OCCO)[C@H](OC)C2)CC(=O)[C@H](C)/C=C(\C)[C@@H](O)[C@@H](OC)C(=O)[C@H](C)C[C@H](C)/C=C/C=C/C=C/1C` [everolimus]: the Mean lumen loss in data set [5] (setting [8]) was determined as 1.15 mm; in data set [5] (setting [9]) it was 0.84 mm; in data set [5] (setting [10]), 1.54 mm; in data set [5] (setting [11]), 0.85 mm. For the same molecule, the Neointimal area in data set [5] (setting [8]) was determined as 4.18 mm^2; in data set [5] (setting [9]), 3.54 mm^2; in data set [5] (setting [10]), 3.41 mm^2; in data set [5] (setting [11]), 2.97 mm^2. Also, the Diameter stenosis worked out at 68.5% in data set [5] (setting [8]), 38.0% in data set [5] (setting [9]), 53.0% in data set [5] (setting [10]) and 45.0% in data set [5] (setting [11]).
Regarding `CO[C@H]1C[C@@H]2CC[C@@H](C)[C@@](O)(O2)C(=O)C(=O)N2CCCC[C@H]2C(=O)O[C@H]([C@H](C)C[C@@H]2CC[C@@H](O)[C@H](OC)C2)CC(=O)[C@H](C)/C=C(\C)[C@@H](O)[C@@H](OC)C(=O)[C@H](C)C[C@H](C)/C=C/C=C/C=C/1C` [rapamycin], in data set [6], the solubility in water is 20 micrograms per milliliter. In data set [5] (setting [9]), the Mean lumen loss turned out to be 1.07 mm, the Neointimal area is on record as 3.75 mm^2 and the Diameter stenosis is recorded as 55.0%. Further, in data set [5] (setting [10]), the Mean lumen loss is 0.99 mm, the Neointimal area worked out at 2.80 mm^2 and the Diameter stenosis was found to be 43.0%.
